Target: T1, Nuclear receptor ROR-gamma (Homo sapiens, UniProt P51449)
T1 sequence (P51449 whole entry): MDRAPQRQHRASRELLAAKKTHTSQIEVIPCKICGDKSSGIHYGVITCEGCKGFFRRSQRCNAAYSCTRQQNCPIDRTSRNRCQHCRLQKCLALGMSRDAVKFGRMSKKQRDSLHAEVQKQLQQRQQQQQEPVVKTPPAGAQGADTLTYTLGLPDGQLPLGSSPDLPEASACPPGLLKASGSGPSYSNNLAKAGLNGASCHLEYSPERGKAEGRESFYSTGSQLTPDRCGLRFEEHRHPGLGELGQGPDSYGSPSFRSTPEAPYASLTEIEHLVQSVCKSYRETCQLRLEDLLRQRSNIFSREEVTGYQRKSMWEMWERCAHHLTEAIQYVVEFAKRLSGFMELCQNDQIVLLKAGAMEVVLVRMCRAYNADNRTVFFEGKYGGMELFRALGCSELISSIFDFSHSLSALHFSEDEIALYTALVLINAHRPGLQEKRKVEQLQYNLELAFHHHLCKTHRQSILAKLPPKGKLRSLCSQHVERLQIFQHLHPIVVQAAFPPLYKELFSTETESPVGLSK
Assay: Binding Assay: Compounds of the present invention were tested for ability to bind to RORγ in a cell-free competition assay with commercially available radio-ligand (RL), 25-hydroxy [26,27-3H]— cholesterol (PerkinElmer, Cat. # NET674250UC), for a ligand binding site on a recombinant RORγ Ligand Binding Domain (LBD) protein expressed as a 6×His-Glutathione-S-Transferase (GST) fusion (“6×His” disclosed as SEQ ID NO: 2). The assay was performed in 96-well SPA plates (PerkinElmer, Cat. #1450-401) in 50 mM HEPES buffer, pH 7.4, containing 150 mM NaCl, 5 mM MgCl2, 10% (v/v) glycerol, 2 mM CHAPS, 0.5 mM β-octylglucopyranoside and 5 mM DTT. Tested compounds were dissolved in DMSO, and semi-log (3.162×) serial dilutions of the compounds were prepared in the same solvent. Two μL of the DMSO solutions were mixed with 28 μL of 8.6 nM 25-hydroxy [26,27-3H]— cholesterol and 50 μL of 24 nM RORγ LBD. The plate was shaken at 700 rpm for 20 min and incubated for 10 min at rt, after which 40 μL of poly-Lys YSi SPA beads (PerkinElmer, Cat. # RPNQ0010) were added to achieve 50 μg of the beads per well. The plate was incubated on an orbital shaker for 20 min and then for 10 min without agitation at rt. SPA signal for tritium beta radiation was registered on PerkinElmer Microbeta plate reader. […]

`CC(C)[C@H]1c2nc(NS(=O)(=O)c3cccc(C(F)(F)F)c3)sc2CN1Cc1ccc(Cl)cc1` was tested, and the Ki was > 1000 nM.
